Measurements: patent US20180135010A1, “ISOLATION AND LONG-TERM CULTURING OF ESTROGEN RECEPTOR-POSITIVE HUMAN BREAST EPITHELIAL CELLS” (University of Copenhagen, priority 2015, published 2018)

Legend:
CD166^high cells = experiment: Induction of ER, K8 and luminal genes by TGF-β signaling inhibitors (qPCR, Western blotting, staining); format: cell-based, human
Protocol: To test the specificity of the effect of TGFβ[…], in some experiments SB431542 alone or the double concentration of SB431542 was used instead of TGFβ[…] or RepSox was replaced by another TGF-β type I receptor activin receptor-like kinase ALKS inhibitor, SD208 (1 μM, Tocris Bioscience). The vehicle, dimethyl sulfoxide (Sigma Aldrich), was included in all experiments added in appropriate concentrations for control cultures. Gentamycin (50 μg/ml, Biological Industries) was added to the cultures for one week after sorting, otherwise antibiotics were not included. […] In order to quantify cDNA concentration represented by cycle threshold (Ct) values, Cts were determined at the initial period of exponential amplification in triplicates and the different PCR runs were adjusted by inter-run calibrators (Bio-Rad CFX manager 3.0). Each gene expression level was to the mean of four reference gene expressions (GAPDH, HPRT1, TBP, and TFRC). The qRT-PCR data were then visualized as a heatmap using the statistical programi R or as a bar graph using the values calculated by the 2^-ΔΔCt method (Livak et al., 2001). […] Whole cell lysates were prepared for extraction by incubation in RIPA lysis buffer for 30 min at 4° C. with protease inhibitor cocktail (P8340, Sigma) and phosphatase inhibitor cocktail (Sigma, P5726). Protein were separated by a 4 12% Novex® Bis-Tris pre-cast polyacrylamide gradient gel (Life technologies) and transferred to a PVDF membrane using iBlot® dry blotting system (Life technologies). Molecular weight was indicated by using a pre-stained protein ladder (SM0671, Fermentas). […] Secondary antibodies conjugated with horseradish peroxidase (DAKO) were incubated for one hour at room temperature. Western blots were visualized using enhanced chemiluminescence solution ([…] 32106, Thermo Scientific) and a chemi-luminescence imager (Amersham Image 600, GE Healthcare life sciences).

[1] = tested on: hTERT/shp16 transduced ER^pos HBEC; experiment: qRT-PCR of ESR and PGR after 7 days exposure to inhibitors; format: cell-based, human; conditions: RepSox alone versus combination with SB431542
Protocol: FIG. 12: PCR analysis of human estrogen receptor signaling. (a) Using a commercially available PCR array containing 84 genes involved in ER activation and its response, qRT-PCR was conducted with RNA samples of ER^pos HBEC with or without TGFβ[…]. Among them, 20 genes (some of which are labeled in the plot) were highly expressed in the presence of TGFβ[…]. […] The black line indicates no difference between samples, while the pink lines indicate a two-fold change in gene expression. Two biological replicates were run I qRT-PCT with duplicates of each. […] Bars indicate the fold difference of the relative gene expression and error bars represent SD of triplicates in qPCR.

CD166^high-derived cells = experiment: Long-term growth / population doublings on passaging; format: cell-based, human; conditions: in the absence of RepSox (SB431542 alone)
Description: For growth experiments cultures initially seeded at 6400 cells/cm^2 and grown for fifteen days in primary culture in TGFβR2i or with SB431542 alone. Next, the cultures were trypsinized and seeded at 4000 cells/cm^2 in triplicate cultures, and subsequently passaged at the same density before the cultures reached confluency. Parallel cultures were stained to assess Ks20.8, ER and PR expression status. The number of cells was quantified manually using a counting chamber. […] Population doublings were calculated as n=3.32(log UCY—log 1)+X, where n=population doubling, UCY=cell yield, 1=inoculum number, X=population doubling rate of inoculum. To determine whether continuous TGFβR2i culture was needed to sustain ER and K8 expression, cells in the sixth passage were switched to FAD2 and the number of ER^pos cells (n=3×100) was compared to parallel TGFβR2i cultures at day three and five.

ER^pos cells [2] = experiment: qRT-PCR of PGR and GREB1 after estrogen; format: cell-based, human; conditions: long-term exposure to estrogen
ER^pos cells [3] = experiment: Response to estrogen on confluent fibroblast feeders; format: cell-based, human; conditions: on confluent fibroblast feeders in TGFβR2i, day eight
Protocol: To assess whether the response of ER^pos cells to estrogen was modulated by the presence of fibroblasts, second or third passage ER^pos cells, with or without omission of EGF in the previous passage, were plated at a density of 5600 cells/cm^2 on confluent fibroblast feeders in triplicate culture. The following day, the culture medium was switched to TGFβR2i with estrogen or vehicle. […] At day eight, the cultures were trypsinized and the total cell number was quantified. Whether a continuous lack of EGF influenced the response to estrogen was tested in a similar set-up, where EGF was omitted from the medium during the entire experimental period.

luminal cells = experiment: Screening assay for normal morphogenic behavior (co-culture on fibroblast feeder in BBMYAB); format: cell-based, human; conditions: E2 10^−8 M
Description: Within two weeks luminal cells grow up from single cells to form polarized structures, either comprising luminal cells only or luminal cells surrounded by a layer of myoepithelial cells, reminiscent of their organization in vivo.

ER^pos cells [4] = experiment: Proliferative response to estrogen without EGF; format: cell-based, human; conditions: early passage cultures, 10^−8 M β-estradiol versus vehicle, four days
Protocol: To test the proliferative response to estrogen, ER^pos cells in TGFβR2i culture were seeded in second passage with 4000 cells/cm^2 in TGFβR2i with 25 μM RepSox and without EGF, supplemented with estrogen (10^−8 M, β-estradiol, E2758, Sigma-Aldrich) and cultured for up to 13 days with medium change every other day. A primary culture from another biopsy (P959) was cultured 27 days in the presence of estrogen and without EGF before splitting. The cells were passaged at 4000 cells/cm^2 in triplicate cultures with estrogen or vehicle (96% ethanol). At day four the cultures were trypsinized and quantified using a counting chamber.

ER^pos cells [5] = experiment: PR protein staining after estrogen; format: cell-based, human; conditions: 10^−8 M β-estradiol, absence of EGF
Protocol: Cryostat sections, smears of sorted cells and monolayer cultures were prepared and stained by immunoperoxidase or immunofluorescence as previously described (Petersen et al. 1988, Villadsen et al. 2007, Rønnov-Jessen et al. 1992). Cellular smears for ER staining were fixed in 10% formalin for 10 min, followed by 5 min in ice-cold methanol:acetone (1:1), and incubated over night with anti-ER (Sp1, 1:10) at 4° C., followed by incubation for 30 min with Alexa Fluor 568 goat-anti rabbit IgG (Invitrogen). […] Immunofluorescence and peroxidase stainings were evaluated, quantified and photographed using a laser-scanning microscope (LSM 510; Carl Zeiss Microlmaging, Inc.) and brightfield microscopes (Laborlux S or DM5500B, Leica), respectively. For quantification of ER, K8, K19 and p63, nuclei were counterstained with hematoxylin and counted in randomly selected fields using an ocular grid and given as the percentage of stained cells of a total of 1000 cells evaluated with a 25 times objective.
As an ultimate test for a physiologically relevant ER expression we decided to assess the effect of added cognate ligand, i. e. estrogen (β-estradiol). […] Early passage cultures were exposed to estrogen or vehicle, and after four days the cell number was quantified. […]

ER and PR = experiment: Substitution of EGF with amphiregulin in the culture medium; format: cell-based; conditions: EGF substituted with amphiregulin

**Q.** `NC(=O)c1ccc(-c2nc(-c3ccc4c(c3)OCO4)c(-c3ccccn3)[nH]2)cc1` [SB431542] was tested. Which “ER expression at the mRNA level” value (CD166^high cells; SB431542 alone in FAD2) did it give?
**A.** The value was “capable of inducing increased expression of ER at the mRNA level”.

**Q.** What about the “induction of K8 and ER” value (CD166^high cells; twice the concentration of SB431542 instead of TGFβR2i) of the same molecule?
**A.** Its value is “insufficient to induce K8 and ER”.

**Q.** For `Cc1cccc(-c2[nH]ncc2-c2ccc3ncccc3n2)n1` [RepSox], which “induction of ER or PR” value [1] is on record?
**A.** The value was “not as effective in inducing ER or PR as in combination with SB431542”.

**Q.** What about the expansion on passaging (CD166^high-derived cells) of the same molecule?
**A.** Its expansion on passaging is “could not be expanded beyond fourth passage”.

**Q.** For `Fc1ccc(Cl)cc1-c1nc(Nc2ccncc2)c2nccnc2n1` [SD208], which “induction of K8 and ER” value (CD166^high cells; RepSox replaced by SD208) is on record?
**A.** Its value is “insufficient to induce K8 and ER”.

**Q.** Which “expression of PGR and GREB1” value (ER^pos cells [2]) does the source give for β-estradiol [estrogen] here?
**A.** Its value is “increased expression of PGR and GREB1”.

**Q.** What about the cell number (ER^pos cells [3]) of the same molecule?
**A.** The cell number was “significant increase in cell number”.

**Q.** What about the epithelial colony size (luminal cells) of the same molecule?
**A.** Its epithelial colony size is “larger epithelial colonied are formed”.

**Q.** And the “estrogen receptor and progesterone receptor expression” value (luminal cells)?
**A.** The value was “down-regulation of its receptor and induction of the downstream progesterone receptor”.

**Q.** And the cell number (ER^pos cells [4])?
**A.** Its cell number is “significantly higher cell numbers”.

**Q.** And the PR protein expression (ER^pos cells [5])?
**A.** Its PR protein expression is “higher focal expression of PR protein”.

B1: amphiregulin: EGF-like compound substituted for EGF in the culture medium (protein, UniProt P15514 101-187, looked up)
Amphiregulin: SVRVEQVVKPPQNKTESENTSDKPKRKKKGGKNGKNRRNRKKKNPCNAEFQNFCIHGECKYIEHLEAVTCKCQQEYFGERCGEKSMK
modifications: Amphiregulin
notes: EGF-like compound substituted for EGF in the culture medium
**Q.** For B1, which “level of ER and PR” value (ER and PR) is on record?
**A.** The value was “a higher level of ER and PR is observed”.
